According to publication PMC5445283, “Selection and characterization of alanine racemase inhibitors against Aeromonas hydrophila” (BMC Microbiology, 2017):
Values after ≈ are worked out from the molar mass of the structure shown. Values joined by “and” are separate entries in the source; they are usually repeats but may differ in a detail not shown here. Equal entries are not always repeated. “Also recorded” adds a separate entry of the source. Structures can show the parent of a compound that is named as a salt. Where two headings read alike, the source gives them in different places.

Tests used:
alanine racemase Alr-2 [1] = molecular target: T1, alanine racemase Alr-2 (Aeromonas hydrophila, UniProt A0KL98); assay: biochemical
Procedure: Alanine racemase activity was measured at room temperature in the L → D direction using a spectrophotometric assay. The assay was modified by varying the volume to 100 μl and dividing it into two steps (Fig. 1).
The first step (F1) is the production of the D-form amino acids. The optimized enzyme assay reaction mixture consisted of 10 μM PLP, 12.5 mM of NaHCO3-NaOH buffer (pH 11), and 50 mM L-alanine and alanine racemase. A total of 100 μl of this reaction mixture was added to the wells of a 96-well plate. After incubation at 35 °C for 10 min, the reaction was terminated by adding 12.5 μl of 2 M HCl, and the incubation was continued for 2 min on ice. The reaction mixture was centrifuged at 10,000 RPM, for 10 min at 4 °C, and 10 μl of 2 M NaOH was added to neutralize the reaction mixture. The second step (F2) is the conversion of D-alanine to α-keto acids using D-amino acid oxidase (DAAO). The formation of H2O2 from this reaction can be quantified using horseradish peroxidase (HRP) at 550 nm. The DAAO reaction mixture contained 200 mM of Tris-HCl (pH 8.0), 0.1 mg/ml 4-aminoantipyrine (AAP), 0.1 mg/ml N-ethyl-N-(2-hydroxy-3-sulfopropyl)-m-toluidine sodium salt (TOOS), 2 units of HRP, 0.1 unit of DAAO and D-form amino acid solution in a final volume of 100 μl. The negative control for the enzyme assay was prepared using the same procedure but without enzyme. After incubating at 37 °C for 30 min, the absorbance was measured at 550 nm using a Spectra MAX 190 microplate reader (Molecular Devices Corp., USA). One unit (U) of enzyme was defined as the amount of purified enzyme that catalyzed the formation of 1 μmol of D-alanine from L-alanine per minute.
Each well (sample, control, and their blanks) contained the screening assay reaction mixture of 10 μM PLP and 12.5 mM NaHCO3-NaOH buffer (pH 11). Next, 4 μl of test substance (small molecular compounds or natural product extracts) was added to the sample and sample blank test tubes. Finally, […] alanine racemase was added to the sample and control test tubes while the same volume of DMSO was added to the sample blank and control blank test tubes. After incubation at 4 °C for 30 min, 50 mM L-alanine was added to the sample and control test wells while DMSO was added to the sample blank and control blank test wells to obtain a final volume of 100 μl. The control and control blank were defined as 100% and 0% of enzyme activity. The reaction was then carried out as described for the alanine racemase assay. The assay is divided into two steps: absorbance was measured at 550 nm at the end of the first (F1), and second (F2) steps and ΔF was defined as F2-F1. Inhibition activity was calculated from the following equation.
Fourfold dilution series (in DMSO) were prepared for all the compounds, and the solutions were added to the wells of a 96-well plate to yield the final inhibitory concentrations. Each concentration was tested in triplicate. The substrate was added after incubation for 30 min, and the fluorescence intensity was measured after the reaction. The positive control (D-cycloserine, DCS) was diluted in DMSO, and the negative control was prepared without adding an inhibitor to the control wells of each plate. Percentage inhibition at each inhibitor concentration was calculated with respect to the negative control. The results were analyzed using the SPSS 16.0 IBM modeler to calculate the compound concentration that causes 50% inhibition (IC50).

A. hydrophila = assay: Antimicrobial susceptibility test, MIC by microdilution; assay type: cell-based, Aeromonas hydrophila; details: for MIC: Aeromonas hydrophila, read-out: MIC against A.hydrophila; for growth inhibition of A. hydrophila, in words: screen for antimicrobial activity
Procedure: (§1) A. hydrophila was cultured for 18 h, washed with PBS (pH 7.2), and adjusted to an OD600 value of 0.5. Next, the culture was diluted tenfold five times, and aliquots were spread on LB agar in triplicate to determine the number of colony-forming units (CFU)/ml.
(§2) The minimum inhibitory concentration (MIC) of the chemical compounds against A. hydrophila was determined using the microdilution method in accordance with the guidelines of the Clinical and Laboratory Standards Institute, document M31-A3 [16], following the method described by Dal Pozzo et al.. Compounds were diluted in DMSO at concentrations of 80, 40, 20, or 10 μg/ml. Appropriate controls were included in all tests. DCS is a naturally occurring antibacterial compound that targets alanine racemase involved in peptidoglycan synthesis. DCS was used as a positive control ([…]), DMSO solvent was used as a negative control for growth inhibition and DMSO alone was used as the blank control. All tests were performed in triplicate. The inoculum was prepared in LB culture medium (1 × 10^8 CFU/ml; OD600 = 0.3) and cultured at 30 °C/20 h. The inoculum (100 μl; 1 × 10^5 CFU) was added to each well containing compounds. The microplates were incubated at 30 °C for 20 h.

A. hydrophila Δalr-2 = assay type: cell-based, Aeromonas hydrophila; details: for MIC against A.hydrophila Δalr-2: average values with standard deviations in parentheses, NC: non calculable as the values are too high
Procedure: A. hydrophila HBNUAh01 isolated from infected Paralichthys olivaceus and an A. hydrophila alr-2 knockout mutant were used in this study. Escherichia coli BL-21(DE3) cells were used for protein expression. The pET-25b-alr2 plasmid was used for protein expression. The A. hydrophila and E. coli strains were cultured in Luria-Bertani (LB) medium at 30 °C and 37 °C, respectively. For plasmid selection, 0.5 mmol/l ampicillin (AMP, Sigma–Aldrich Inc., USA) was added to the LB medium for experiments with E. coli.
as §1, §2

[2] = test system: D-amino acid oxidase (DAAO) and horseradish peroxidase (HRP); assay: Assay interference counter screen (second step of the assay); assay type: biochemical; details: for inhibition of second-step enzymes / assay interference, in words: HRP and DAAO, within a concentration of 50 μM; for IC50: DAAO/HRP reaction, 10 μM D-ala as substrate, read-out: IC50 on the enzymes in the second step (counter screen)
Procedure: To eliminate the inhibitory effects of the compounds on DAAO and HRP, a counter screening assay was performed as described above. The first-step assay mixtures without alanine racemase and L-alanine were added to each test well, followed by the addition of a twofold dilution series (in DMSO) of the inhibitors to the sample test wells, and finally, the addition of DMSO to the blank control wells. Then, DMSO was added to each well to obtain reaction mixtures at a final volume of 100 μl.
Second, the D-amino acid oxidase reaction mixture was prepared using 10 μM D-ala as the substrate. The control and control blank for the enzyme assay was prepared with or without 10 μM D-ala and absorbance was measured at 550 nm.

Caco-2 cells = test system: Caco-2 cells; design: method as in PMID 22146584; details: cited from earlier work
HeLa cells = assay type: cell-based; details: for cytotoxicity, in words: MTT assay, HeLa / mammalian cells; for TC50, cytotoxicity in HeLa cells: MTT, 48 h exposure, average values with standard deviations, NC: non calculable as the values are too high
Procedure: This assay was performed in a 96-well plate format and used HeLa cells. The cell viability was determined using 3-(4,5-dimethyl-2-thiazole)-2,5-diphenyl-2H-tetrazolium bromide (MTT, Sigma-Aldrich). Cells were seeded in culture medium in microplates (4000 cells/well) and incubated at 37 °C for 24 h before drug treatments. […] The cells were exposed to the compounds for 48 h. At the end of the incubation, the cells were exposed to MTT (0.5 mg/ml) at 37 °C for 4 h. The reduced crystals were dissolved in DMSO, and absorbance was detected at 490 nm. The […] were set as zero absorbance. The percentage of cell survival was calculated using the background-corrected absorbance as follows: Cell survival (%) = (ODexperiment/ODcontrol) × 100. The data represent the mean and standard deviation from triplicate determination.

alanine racemase Alr-2 [3] = molecular target: T1, alanine racemase Alr-2; assay: Kinetics of alanine racemase inhibition (Lineweaver-Burk); assay type: biochemical; details: for Ki: Lineweaver-Burk analysis, read-out: inhibition constant Ki; for type (mode) of inhibition: Lineweaver-Burk profile
Procedure: The mode of inhibition of the enzyme by the compounds was determined as follows. The experiment was composed of three sets of reactions in which each set consisted of four concentrations of substrate in the presence of fixed amounts of alanine racemase, and three different concentrations of inhibitors were used. For homogentisic acid and hydroquinone, 0, 0.02 and 0.04 mg/ml were used. The reactions were made as described. The amount of product was determined spectrophotometrically and subsequently the standard curve was used to obtain reaction velocities. A double reciprocal plot (1/V versus 1/[S]), where V is reaction velocity and [S] is substrate concentration, was plotted. The type (mode) of inhibition of enzyme activity by the compounds was determined by analysis of the double reciprocal (Lineweaver-Burk) plot using Michaelis-Menten kinetics. The inhibition constant (K i) of the inhibitors was determined.

[4] = average values with standard deviations in parentheses, NC: non calculable as the values are too high
[5] = average values with standard deviations in parentheses, read-out: IC50 against Alr-2 with PLP

T1 sequence (A0KL98 entry or part of it): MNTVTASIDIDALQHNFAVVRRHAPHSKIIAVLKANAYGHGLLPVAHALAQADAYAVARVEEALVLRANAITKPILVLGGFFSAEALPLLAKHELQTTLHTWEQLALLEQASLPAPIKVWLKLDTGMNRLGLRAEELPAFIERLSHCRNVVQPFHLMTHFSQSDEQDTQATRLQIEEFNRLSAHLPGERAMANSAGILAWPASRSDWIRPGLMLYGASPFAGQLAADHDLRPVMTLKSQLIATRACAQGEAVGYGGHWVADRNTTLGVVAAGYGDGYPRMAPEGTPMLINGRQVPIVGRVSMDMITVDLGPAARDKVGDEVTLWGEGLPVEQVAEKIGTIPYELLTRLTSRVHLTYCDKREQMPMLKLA

With `O=C1C=C2C(=CCOC2O)O1` (centres unmarked) [Compound I-2, Patulin] the IC50 (alanine racemase Alr-2 [1]) was 14.7 µM, the MIC (A. hydrophila) was 20 µg/mL (≈ 130 µM) and the “growth inhibition of A. hydrophila, in words” value (“growth inhibition” for short) (A. hydrophila) was “inhibit the growth of A. hydrophila significantly”. The “MIC against A.hydrophila Δalr-2” value (A. hydrophila Δalr-2) was 80(3.96) μg/ml, the “inhibition of second-step enzymes / assay interference, in words” value [2] was “weak inhibition” and the “inhibition of second-step enzymes / assay interference, in words” value ([2]; listed as patulin) was “No assay interference”. The “IC50 against Caco-2 cells” value (Caco-2 cells) was 0.62 µg/mL (≈ 4.02 µM).

With `Oc1ccc(O)cc1` [Compound I-6, Hydroquinone] the IC50 (alanine racemase Alr-2 [1]) was 18.5 µM, the MIC (A. hydrophila; [4]) was 80 µg/mL (≈ 727 µM) and the “growth inhibition” value (A. hydrophila) was “inhibit the growth of A. hydrophila significantly”. The “MIC against A.hydrophila Δalr-2” value (A. hydrophila Δalr-2) was 140(2.4) μg/ml, the “cytotoxicity, in words” value (HeLa cells) was “minimal cytotoxicity” and the “TC50, cytotoxicity in HeLa cells” value (HeLa cells) was 122.9 μg/ml and 122.9(8.9) μg/ml. For the same molecule, the IC50 [2] was 113 µM, the “inhibition of second-step enzymes / assay interference, in words” value [2] was “No assay interference” and the Ki (alanine racemase Alr-2 [3]) was 212 µM. For the same molecule, the “type (mode) of inhibition” value (alanine racemase Alr-2 [3]) was “noncompetitive inhibitor; also recorded: noncompetitive type of inhibition”.

With `O=C(O)Cc1cc(O)ccc1O` [Compound I-3, Homogentisic acid] the IC50 (alanine racemase Alr-2 [1]) was 12.5 µM, the MIC (A. hydrophila; [4]) was 120 µg/mL (≈ 714 µM) and the “growth inhibition” value (A. hydrophila) was “inhibit the growth of A. hydrophila significantly”. The “antimicrobial activity against A. hydrophila Δalr-2, in words” value (A. hydrophila Δalr-2) was “no antimicrobial activity”, the “cytotoxicity, in words” value (HeLa cells) was “minimal cytotoxicity” and the “TC50, cytotoxicity in HeLa cells” value (HeLa cells) was 157.7 μg/ml and 157.7(6.1) μg/ml. The IC50 [2] was 96.1 µM, the “inhibition of second-step enzymes / assay interference, in words” value [2] was “No assay interference” and the Ki (alanine racemase Alr-2 [3]) was 51.7 µM. For the same molecule, the “type (mode) of inhibition” value (alanine racemase Alr-2 [3]) was “competitive type of inhibition”.

For `Oc1ccc(CC2NCCc3cc(O)c(O)cc32)cc1` (centres unmarked) [Compound I-9, Higenamine], the IC50 (alanine racemase Alr-2 [1]) was 14.3 µM.

Work on `Oc1cc2c(cc1O)C1c3ccc(O)c(O)c3OCC1(O)C2` (centres unmarked) [Compound I-8, Haematoxylin] yielded an IC50 (alanine racemase Alr-2 [1]; [5]) of 15.6 µM.

Work on Anabellamide [Compound I-1] yielded an IC50 (alanine racemase Alr-2 [1]; [5]) of 6.6 µM.

Work on `O=C(O)CCc1ccccc1Nc1c2ccccc2nc2ccccc12` [Compound I-7, Benzenepropanoic acid,2-(9-acridinylamino)-monohydrochloride] yielded an IC50 (alanine racemase Alr-2 [1]; [5]) of 17.7 µM.

For `N[C@@H]1CON=C1O` [DCS, D-cycloserine, reference compound], the IC50 (alanine racemase Alr-2 [1]; [5]) was 5.4 µM, the MIC (A. hydrophila; [4]) was 25 µg/mL (≈ 245 µM) and the “MIC against A.hydrophila Δalr-2” value (A. hydrophila Δalr-2) was 50(2.9) μg/ml. For the same molecule, the “TC50, cytotoxicity in HeLa cells” value (HeLa cells) was 149.6 μg/ml and 149.6(5.9) μg/ml.

With `CCCOC(=O)c1cc(O)c(O)c(O)c1` [Compound I-5, Propyl Gallate] the IC50 (alanine racemase Alr-2 [1]; [5]) was 8.6 µM.

`O=c1c(O)c(-c2ccc(O)c(O)c2)oc2cc(O)cc(O)c12` [Compound I-10, Quercetin] gave an IC50 (alanine racemase Alr-2 [1]) of 15.5 µM.

`CCCCC1(C)C=CC(=C2C(=O)OC(=CC(=O)O)C2=O)O1` (centres unmarked) [Compound I-4, Acetic acid,[4-(5-butyl-5-methyl-2(5H)-furanylidene)dihydro −3,5-dioxo-2(3H)-furanylidene]-(9CI)] gave an IC50 (alanine racemase Alr-2 [1]; [5]) of 8.9 µM.
